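Where inhibition never reached the appropriate level, the endpoint shown equals the highest concentration tested. Otherwise, values were interpolated linearly from a five-concentration, 48-hour dose response in 96-well plates. The concentration for full growth arrest is given as TGI.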
Assays:
Assay in all cases: NCI tumour cell line growth inhibition, 48 h
SNB-75 CNS = test system: SNB-75 CNS
OVCAR-4 ovarian = test system: OVCAR-4 ovarian
KM12 colon = test system: KM12 colon
XF 498 CNS = test system: XF 498 CNS
UO-31 renal = test system: UO-31 renal
SN12C renal = test system: SN12C renal
SK-MEL-28 melanoma = test system: SK-MEL-28 melanoma
SNB-78 CNS = test system: SNB-78 CNS
MOLT-4 leukemia = test system: MOLT-4 leukemia
A498 renal = test system: A498 renal
NCI-H226 lung = test system: NCI-H226 lung
HCT-116 colon = test system: HCT-116 colon
SK-MEL-5 melanoma = test system: SK-MEL-5 melanoma
LOX IMVI melanoma = test system: LOX IMVI melanoma
DLD-1 colon = test system: DLD-1 colon
DMS 273 small cell lung = test system: DMS 273 small cell lung
OVCAR-5 ovarian = test system: OVCAR-5 ovarian
OVCAR-8 ovarian = test system: OVCAR-8 ovarian
LXFL 529 NSCLC = test system: LXFL 529 NSCLC
RPMI-8226 leukemia = test system: RPMI-8226 leukemia
SK-OV-3 ovarian = test system: SK-OV-3 ovarian
IGROV1 ovarian = test system: IGROV1 ovarian
CCRF-CEM leukemia = test system: CCRF-CEM leukemia
HT29 colon = test system: HT29 colon
A549 NSCLC = test system: A549 NSCLC
786-0 renal = test system: 786-0 renal
M14 melanoma = test system: M14 melanoma
U251 CNS = test system: U251 CNS
SW-620 colon = test system: SW-620 colon
HL-60(TB) leukemia = test system: HL-60(TB) leukemia
DMS 114 small cell lung = test system: DMS 114 small cell lung
K-562 leukemia = test system: K-562 leukemia
SF-268 CNS = test system: SF-268 CNS
HOP-92 NSCLC = test system: HOP-92 NSCLC
NCI-H460 lung = test system: NCI-H460 lung
HOP-62 NSCLC = test system: HOP-62 NSCLC
COLO 205 colon = test system: COLO 205 colon
SF-295 CNS = test system: SF-295 CNS
HCT-15 colon = test system: HCT-15 colon
EKVX NSCLC = test system: EKVX NSCLC
SK-MEL-2 melanoma = test system: SK-MEL-2 melanoma
TK-10 renal = test system: TK-10 renal
SF-539 CNS = test system: SF-539 CNS
M19-MEL melanoma = test system: M19-MEL melanoma
UACC-62 melanoma = test system: UACC-62 melanoma
KM20L2 colon = test system: KM20L2 colon
ACHN renal = test system: ACHN renal
HCC-2998 colon = test system: HCC-2998 colon
OVCAR-3 ovarian = test system: OVCAR-3 ovarian
SNB-19 CNS = test system: SNB-19 CNS
HOP-18 NSCLC = test system: HOP-18 NSCLC
UACC-257 melanoma = test system: UACC-257 melanoma
MALME-3M melanoma = test system: MALME-3M melanoma
SR leukemia = test system: SR leukemia
RXF 393 renal = test system: RXF 393 renal
NCI-H23 lung = test system: NCI-H23 lung
NCI-H522 lung = test system: NCI-H522 lung
RXF-631 renal = test system: RXF-631 renal
CAKI-1 renal = test system: CAKI-1 renal

**Q.** Which results are given for `COC(OC)C(C)CC(=O)N(C)C` (stereo not drawn)?
**A.** TGI (SNB-75 CNS): > 100 µM; TGI (OVCAR-4 ovarian): > 100 µM; TGI (KM12 colon): > 100 µM; TGI (XF 498 CNS): > 100 µM; TGI (UO-31 renal): > 100 µM; TGI (SN12C renal): > 100 µM; TGI (SK-MEL-28 melanoma): > 100 µM; TGI (SNB-78 CNS): > 100 µM; TGI (MOLT-4 leukemia): > 100 µM; TGI (A498 renal): > 100 µM; TGI (NCI-H226 lung): > 100 µM; TGI (HCT-116 colon): > 100 µM; TGI (SK-MEL-5 melanoma): > 100 µM; TGI (LOX IMVI melanoma): > 100 µM; TGI (DLD-1 colon): > 100 µM; TGI (DMS 273 small cell lung): > 100 µM; TGI (OVCAR-5 ovarian): > 100 µM; TGI (OVCAR-8 ovarian): > 100 µM; TGI (LXFL 529 NSCLC): > 100 µM; TGI (RPMI-8226 leukemia): > 100 µM; TGI (SK-OV-3 ovarian): > 100 µM; TGI (IGROV1 ovarian): > 100 µM; TGI (CCRF-CEM leukemia): > 100 µM; TGI (HT29 colon): > 100 µM; TGI (A549 NSCLC): > 100 µM; TGI (786-0 renal): > 100 µM; TGI (M14 melanoma): > 100 µM; TGI (U251 CNS): > 100 µM; TGI (SW-620 colon): > 100 µM; TGI (HL-60(TB) leukemia): > 100 µM; TGI (DMS 114 small cell lung): > 100 µM; TGI (K-562 leukemia): > 100 µM; TGI (SF-268 CNS): > 100 µM; TGI (HOP-92 NSCLC): > 100 µM; TGI (NCI-H460 lung): > 100 µM; TGI (HOP-62 NSCLC): > 100 µM; TGI (COLO 205 colon): > 100 µM; TGI (SF-295 CNS): > 100 µM; TGI (HCT-15 colon): > 100 µM; TGI (EKVX NSCLC): > 100 µM; TGI (SK-MEL-2 melanoma): > 100 µM; TGI (TK-10 renal): > 100 µM; TGI (SF-539 CNS): > 100 µM; TGI (M19-MEL melanoma): > 100 µM; TGI (UACC-62 melanoma): > 100 µM; TGI (KM20L2 colon): > 100 µM; TGI (ACHN renal): > 100 µM; TGI (HCC-2998 colon): > 100 µM; TGI (OVCAR-3 ovarian): > 100 µM; TGI (SNB-19 CNS): > 100 µM

**Q.** What does the source list for `CN(C)c1nc(=Nc2ccc(N=c3nc(N(C)C)ss3)cc2)ss1`?
**A.** TGI (HOP-18 NSCLC): > 100 µM; TGI (SNB-75 CNS): > 100 µM; TGI (OVCAR-4 ovarian): 48.1 µM; TGI (KM12 colon): > 100 µM; TGI (UO-31 renal): > 81.6 µM; TGI (SN12C renal): > 92.3 µM; TGI (SK-MEL-28 melanoma): 33.6 µM; TGI (SNB-78 CNS): 38.5 µM; TGI (UACC-257 melanoma): > 91.4 µM; TGI (MOLT-4 leukemia): 51.3 µM; TGI (MALME-3M melanoma): 51.4 µM; TGI (A498 renal): > 79.3 µM; TGI (NCI-H226 lung): > 100 µM; TGI (HCT-116 colon): 34.1 µM; TGI (SR leukemia): 64.9 µM; TGI (SK-MEL-5 melanoma): > 61.2 µM; TGI (LOX IMVI melanoma): > 67.9 µM; TGI (DLD-1 colon): 30.2 µM; TGI (DMS 273 small cell lung): > 64 µM; TGI (OVCAR-5 ovarian): > 100 µM; TGI (OVCAR-8 ovarian): 34.2 µM; TGI (LXFL 529 NSCLC): > 52.1 µM; TGI (RXF 393 renal): 41.4 µM; TGI (RPMI-8226 leukemia): 40.7 µM; TGI (SK-OV-3 ovarian): > 100 µM; TGI (IGROV1 ovarian): > 71.7 µM; TGI (CCRF-CEM leukemia): 27.7 µM; TGI (HT29 colon): 54.5 µM; TGI (A549 NSCLC): > 100 µM; TGI (786-0 renal): > 100 µM; TGI (M14 melanoma): 25.6 µM; TGI (U251 CNS): > 49.8 µM; TGI (SW-620 colon): > 65.9 µM; TGI (HL-60(TB) leukemia): 45.3 µM; TGI (DMS 114 small cell lung): 38.1 µM; TGI (K-562 leukemia): 30.5 µM; TGI (SF-268 CNS): 99.2 µM; TGI (HOP-92 NSCLC): > 100 µM; TGI (NCI-H460 lung): > 100 µM; TGI (NCI-H23 lung): 20.1 µM; TGI (HOP-62 NSCLC): > 100 µM; TGI (COLO 205 colon): 70.6 µM; TGI (NCI-H522 lung): 25.8 µM; TGI (SF-295 CNS): > 100 µM; TGI (HCT-15 colon): > 100 µM; TGI (RXF-631 renal): 38.8 µM; TGI (EKVX NSCLC): > 100 µM; TGI (SK-MEL-2 melanoma): > 100 µM; TGI (TK-10 renal): > 31.6 µM; TGI (SF-539 CNS): > 100 µM; TGI (M19-MEL melanoma): 40.1 µM; TGI (UACC-62 melanoma): > 21.3 µM; TGI (KM20L2 colon): > 100 µM; TGI (ACHN renal): > 100 µM; TGI (HCC-2998 colon): > 100 µM; TGI (OVCAR-3 ovarian): > 78.6 µM; TGI (SNB-19 CNS): > 100 µM; TGI (CAKI-1 renal): > 59.5 µM

— PubChem BioAssay (NCI)
